Laboratory results from patent US20100119599A1 (ARCHER PHARMACEUTICALS, INC., priority 2006, published 2010).
Where a name gives a salt, the structure may show the parent alone. Read-outs that look alike come from different tables or passages of the source.

Experiments:
Aβ1-40 = test: Measurement of Aβ1-40 in culture medium of 7W WT APP751 CHO cells by ELISA; type: cell-based, Chinese hamster; conditions: for Aβ1-40 (% of control): CHO cells that overexpress APP751, zero = below the detection limit of the assay; for activity at 5 µM: Cricetulus griseus, 5 μM test compound, CHO cells stably transfected with human APP751, culture medium, ELISA, control DMSO;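 on all read-outs here: 5 µM test compound but RI-coded compounds at 10 µM for 24 hours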
Aβ1-42 = test: Measurement of Aβ1-42 in culture medium of 7W WT APP751 CHO cells by ELISA; type: cell-based, Chinese hamster; conditions: for Aβ1-42 (% of control): CHO cells that overexpress APP751, zero = below the detection limit of the assay; for activity at 5 µM: Cricetulus griseus, 5 μM test compound, CHO cells stably transfected with human APP751, culture medium, ELISA, control DMSO;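 on Aβ1-42 (% of control): 5 µM test compound but RI-coded compounds at 10 µM for 24 hours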
[1] = Table 1, 0 = no detectable amount
[2] = Table 1, 0 = no detectable amount, read-out: Aβ1-42 (% of control)

| SMILES | Aβ1-40 (% of control) (Aβ1-40) | Aβ1-42 (% of control) (Aβ1-42) | activity at 5 µM (Aβ1-40; [1]) | activity at 5 µM (Aβ1-42; [2]) | further results |
| --- | --- | --- | --- | --- | --- |
| CC1=C(C(=O)Nc2ccccc2)C(c2ccncc2)C(C#N)=C(S)N1 (stereo not drawn) [ST007526, (5-cyano-2-methyl-4-(4-pyridyl)-6-sulfanyl(3-1,4-dihydropyridyl))-N-benzamide, 4-methylmorpholine salt] | 72.5 % of control | 81.23 % of control |  |  |  |
| CCOC(=O)C1=C(C)NC(C)=C(C(=O)OCC)C1C(=O)O [ST007544, 3,5-bis(ethoxycarbonyl)-2,6-dimethyl-1,4-dihydropyridine-4-carboxylic acid] |  |  |  |  | activity at 5 µM (Aβ1-40; Table 3): 78.7%; activity at 5 µM (Aβ1-42; Table 3, read-out: Aβ-42 (% of control)): 80.1% |
| CCOC(=O)C1=C(N)n2c(s/c(=C\c3ccccc3OC)c2=O)=C(S(=O)(=O)c2ccccc2)C1c1ccccc1OC (stereo not drawn) [ST011325, ethyl 5-amino-7-(2-methoxyphenyl)-2-[(2-methoxyphenyl)methylene[-3-oxo-8-(phenylsulfonyl)-4,7-dihydro-1,3-thiazolidino[3,2-a]pyridine-6-carboxylate] | 62.35 % of control | 99 % of control |  |  |  |
| CCOC(=O)C1=C(N)n2c(s/c(=C\c3ccc(C(C)C)cc3)c2=O)=C(S(=O)(=O)c2ccccc2)C1c1ccc(C(C)C)cc1 (stereo not drawn) [ST011326] | 54.94 % of control | 72.95 % of control |  |  |  |
| C=CCOC(=O)C1=C(C)NC(S)=C(C#N)C1c1cccnc1 (stereo not drawn) [ST011596, prop-2-enyl 5-cyano-2-methyl-4-(3-pyridyl)-6-sulfanyl-1,4-dihydropyridine-3-carboxylate] | 66.77 % of control | 86.14 % of control |  |  |  |
| CC(=O)C1=C(C)NC(S)=C(C#N)C1c1ccccc1[N+](=O)[O-] (stereo not drawn) [ST011628, 5-acetyl-6-methyl-4-(2-nitrophenyl)-2-sulfanyl-1,4-dihydropyridine-3-carbonitrile] | 74.07 % of control | 76.9 % of control |  |  |  |
| CCOC(=O)C1=C(N)n2c(s/c(=C/c3ccc(C(C)C)cc3)c2=O)=C(C(=O)OCC)C1c1ccc(C(C)C)cc1 (stereo not drawn) [ST011764, ethyl 5-amino-6-(ethoxycarbonyl)-7-[4-(methylethyl)phenyl]-2-{[4-(methylethyl)phenyl]methylene}-3-oxo-4,7-dihydro-1,3-thiazolidino[3,2-a]pyridine-8-carboxylate] | 83.4 % of control | 70.37 % of control |  |  |  |
| CCOC(=O)C1=C(N)n2c(s/c(=C/c3ccco3)c2=O)=C(C(=O)OCC)C1c1ccco1 (stereo not drawn) [ST011765, ethyl 5-amino-6-(ethoxycarbonyl)-7-(2-furyl)-2-(2-furylmethylene)-3-oxo-4,7-dihydro-1,3-thiazolidino[3,2-a]pyridine-8-carboxylate] | 42.57 % of control | 29.42 % of control |  |  |  |
| CCOC(=O)C1=c2s/c(=C/c3ccc(C)s3)c(=O)n2C(N)=C(C#N)C1c1ccc(C)s1 (stereo not drawn) [ST011766] | 21.1 % of control | 9.558 % of control |  |  |  |
| COC(=O)C1=C(N)n2c(s/c(=C/c3cccnc3)c2=O)=C(C(=O)OC)C1c1cccnc1 (stereo not drawn) [ST011768, methyl 5-amino-6-(methoxycarbonyl)-3-oxo-7-(3-pyridyl)-2-(3-pyridylmethylene)-4,7-dihydro-1,3-thiazolidino[3,2-a]pyridine-8-carboxylate] | 42.71 % of control | 97.83 % of control |  |  |  |
| COC(=O)C1=C(N)n2c(s/c(=C/c3ccc(Cl)cc3Cl)c2=O)=C(C(=O)OC)C1c1ccc(Cl)cc1Cl (stereo not drawn) [ST011769, methyl 5-amino-7-(2,4-dichlorophenyl)-2-[(2,4-dichlorophenyl)methylene]-6-(methoxycarbonyl)-3-oxo-4,7-dihydro-1,3-thiazolidino[3,2-a]pyridine-8-carboxylate] | 42.3 % of control | 71.56 % of control |  |  |  |
| CCN(CC)c1ccc(C2C(C(=O)OCc3ccccc3)=C(C)NC3=C2C(=O)CC(C)(C)C3)cc1 (stereo not drawn) [ST013049, phenylmethyl 4-[4-(diethylamino)phenyl]-2,7,7-trimethyl-5-oxo-1,4,6,7,8-pentahydroquinoline-3-carboxylate] |  |  | 27.8% | 94.1% |  |
| CC1=C(C(=O)OCc2ccccc2)C(c2cc3c(cc2[NH+]([O-])O)OCO3)C2=C(CC(C)(C)CC2=O)N1 (stereo not drawn) [ST013052, phenylmethyl 2,7,7-trimethyl-4-(6-nitro(2H-benzo[d]1,3-dioxolan-5-yl))-5-oxo-1,4,6,7,8-pentahydroquinoline-3-carboxylate] |  |  | 68.8% | 72.4% |  |
| CCCCCOC(=O)C1=C(C)NC2=C(C(=O)CC(C)(C)C2)C1c1ccc(Cl)cc1 (stereo not drawn) [ST013054, pentyl 4-(4-chlorophenyl)-2,7,7-trimethyl-5-oxo-1,4,6,7,8-pentahydroquinoline-3-carboxylate] |  |  | 0% | 8.36% |  |
| COC(=O)C1=C(C)NC2=C(C(=O)CC(C)(C)C2)C1c1cccnc1 (stereo not drawn) [ST013059, methyl 2,7,7-trimethyl-5-oxo-4-(3-pyridyl)-1,4,6,7,8-pentahydroquinoline-3-carboxylate] |  |  | 26.7% | 76.1% |  |
| CCOC(=O)C1=C(C)NC2=C(C(=O)CC(C)(C)C2)C1c1cc2c(cc1[NH+]([O-])O)OCO2 (stereo not drawn) [ST013060, ethyl 2,7,7-trimethyl-4-(6-nitro(2H-benzo[d]1,3-dioxolan-5-yl))-5-oxo-1,4,6,7,8-pentahydroquinoline-3-carboxylate] |  |  | 32.7% | 99.4% |  |
| CCOC(=O)C1=C(C)NC2=C(C(=O)CCC2)C1c1ccc(N(C)C)cc1 (stereo not drawn) [ST013066, ethyl 4-[4-(dimethylamino)phenyl]-2-methyl-5-oxo-1,4,6,7,8-pentahydroquinoline-3-carboxylate] |  |  | 68.4% | 96.7% |  |
| CCOC(=O)C1=C(C)NC2=C(C(=O)CCC2)C1c1cccnc1 (stereo not drawn) [ST013070, ethyl 2-methyl-5-oxo-4-(3-pyridyl)-1,4,6,7,8-pentahydroquinoline-3-carboxylate] |  |  | 34% | 82.4% |  |
| COC(=O)C1=C(C)NC2=C(C(=O)CCC2)C1c1cc(OC)ccc1OC (stereo not drawn) [ST013073, methyl 4-(2,5-dimethoxyphenyl)-2-methyl-5-oxo-1,4,6,7,8-pentahydroquinoline-3-carboxylate] |  |  | 49.5% | 93.2% |  |
| CC1=C(C(=O)OC(C)C)C(c2cccnc2)C2=C(CCCC2=O)N1 (stereo not drawn) [ST013077, methylethyl 2-methyl-5-oxo-4-(3-pyridyl)-1,4,6,7,8-pentahydroquinoline-3-carboxylate] |  |  | 27.4% | 97.8% |  |
| CC1=C(C(=O)OC2CCCC2)C(c2ccc(Cl)cc2)C2=C(CC(C)(C)CC2=O)N1 (stereo not drawn) [ST013081, cyclopentyl 4-(4-chlorophenyl)-2,7,7-trimethyl-5-oxo-1,4,6,7,8-pentahydroquinoline-3-carboxylate] |  |  | 0% | 0.188% |  |
| CCN(CC)c1ccc(C2C(C(=O)OC3CCCC3)=C(C)NC3=C2C(=O)CC(C)(C)C3)cc1 (stereo not drawn) [ST013083, cyclopentyl 4-[4-(diethylamino)phenyl]-2,7,7-trimethyl-5-oxo-1,4,6,7,8-pentahydroquinoline-3-carboxylate] |  |  | 0% | 91.6% |  |
| COc1ccc(C2C(C(=O)OC3CCCC3)=C(C)NC3=C2C(=O)CC(C)(C)C3)c(OC)c1 (stereo not drawn) [ST013086, cyclopentyl 4-(2,4-dimethoxyphenyl)-2,7,7-trimethyl-5-oxo-1,4,6,7,8-pentahydroquinoline-3-carboxylate] |  |  | 0% | 73.7% |  |
| CC1=C(C(=O)OC(C)C)C(c2ccncc2)C2=C(CCCC2=O)N1 (stereo not drawn) [ST013090, methylethyl 2-methyl-5-oxo-4-(4-pyridyl)-1,4,6,7,8-pentahydroquinoline-3-carboxylate] |  |  | 41.1% | 87.3% |  |
| CC1=C(C(=O)OC2CCCC2)C(c2ccccc2Br)C2=C(CC(C)(C)CC2=O)N1 (stereo not drawn) [ST013103, cyclopentyl 4-(2-bromophenyl)-2,7,7-trimethyl-5-oxo-1,4,6,7,8-pentahydroquinoline-3-carboxylate] |  |  | 0% | 68.2% |  |
| COC(=O)C1=C(C)NC2=C(C(=O)CC(c3ccccc3)C2)C1c1ccc(O)c(OC)c1 (stereo not drawn) [ST013115, methyl 4-(4-hydroxy-3-methoxyphenyl)-2-methyl-5-oxo-7-phenyl-1,4,6,7,8-pentahydroquinoline-3-carboxylate] |  |  | 94.7% | 65.7% |  |
| COC(=O)C1=C(C)NC2=C(C(=O)CC(c3ccccc3)C2)C1c1cc(OC)ccc1OC (stereo not drawn) [ST013117, methyl 4-(2,5-dimethoxyphenyl)-2-methyl-5-oxo-7-phenyl-1,4,6,7,8-pentahydroquinoline-3-carboxylate] |  |  | 22.4% | 46.1% |  |
| CCN(CC)c1ccc(C2C(C(=O)OC)=C(C)NC3=C2C(=O)CC(c2ccccc2)C3)cc1 (stereo not drawn) [ST013129, methyl 4-[4-(diethylamino)phenyl]-2-methyl-5-oxo-7-phenyl-1,4,6,7,8-pentahydroquinoline-3-carboxylate] |  |  | 64.3% | 90.6% |  |
| COc1ccc(C2C(C(=O)OC3CCCC3)=C(C)NC3=C2C(=O)CCC3)cc1Br (stereo not drawn) [ST013137, cyclopentyl 4-(3-bromo-4-methoxyphenyl)-2-methyl-5-oxo-1,4,6,7,8-pentahydroquinoline-3-carboxylate] |  |  | 18.7% | 30% |  |
| COc1ccc(C2C(C(=O)OCc3ccccc3)=C(C)NC3=C2C(=O)CCC3)cc1OC (stereo not drawn) [ST013138, phenylmethyl 4-(3,4-dimethoxyphenyl)-2-methyl-5-oxo-1,4,6,7,8-pentahydroquinoline-3-carboxylate] |  |  | 69.7% | 56.8% |  |
